# Reference: US20120029045A1, “METHOD FOR TREATING PORT WINE STAINS” (SHANGHAI FUDAN-ZHANGJIANG BIO-PHARMACEUTICAL CO., LTD., priority 2010, published 2012)
# How the values were obtained:
# [1] = Pharmacokinetics of HMME in human body; assay type: in vivo
# Experimental: Porphyrin-based photosensitizing drugs were injected intravenously at a dose of 2.5 and 5.0 mg/kg body weight for 20 minutes with a constant flow rate, and the pharmokinetics measured. Blood samples were taken at 5, 10, 20, 25, 30, 40, 50, 80, 110, 140, 200, 260 and 380 minutes separately to measure the serum concentrations of porphyrin-based photosensitizing drugs.
# port wine stain lesion = experiment: PDT for PWS, therapeutic effect assessment; assay type: in vivo, human
# Experimental: The effectiveness of PWS treatment with […] is categorized as being Excellent (I), Good (II), Effective (III) or Ineffective (IV). […] [table] A solution of 1 ml saline was injected in the superficial vein (e.g. median cubital vein) of patients to ensure no liquid leaked into tissues adjacent to the blood vessels into which the injection was made. At the same site, HMME was injected intravenously for 20 minutes with a constant flow rate by using an infusion pump. The doses applied were 2.5 mg/kg body weight or 5.0 mg/kg body weight. Next, 2-4 ml of saline solution was again injected to prevent the drugs from aggregating locally. Irradiation with KTP532 laser was then applied to the patient's lesion site 0-10 minutes after the start of injection, for a total duration of irradiation of either 20 minutes (denoted as the 20 min group), or 30 minutes (denoted as the 30 minute group). […] When irradiation was started immediately after the start of injection, the overlap between the injection and irradiation was about 20 minutes, when irradiation started 5 minutes after the start of injection, the overlap between drug injection and light irradiation was approximately 15 minutes, and when irradiation was started 10 minutes after the start of injection, the overlap was about 10 minutes. The therapeutic results were measured 8 weeks after the treatment. A dose of 5.0 mg/kg body weight of the poryphin based drug was injected, total irradiation durations were 20 min and 30 min respectively, and the effects and adverse effects were assessed. In this example doses of 2.5 and 5.0 mg/kg body weight respectively, were applied, the patient was irradiated for 20 min, and the therapeutic effects and the adverse effects were assessed.
# [2] = 2.5 mg/kg iv over 20 min at constant flow rate
# [3] = 5.0 mg/kg iv over 20 min at constant flow rate
# [4] = 5.0 mg/kg, irradiation 20 min, 8 weeks after treatment
# [5] = 5.0 mg/kg, irradiation 30 min, 8 weeks after treatment
# [6] = Part B, 2.5 mg/kg group, irradiated 20 min, 8 weeks after treatment
# [7] = Part B, 2.5 mg/kg group, irradiated 20 min, 8 weeks after treatment, 2.5 mg/kg
# [8] = Part B, 5.0 mg/kg group, irradiated 20 min, 8 weeks after treatment
# [9] = Part B, Purple type PWS, 2.5 mg/kg group, irradiated 20 min
# [10] = Part B, Purple type PWS, 5.0 mg/kg group, irradiated 20 min
# [11] = Part B, Red type PWS, 2.5 mg/kg group, irradiated 20 min
# [12] = Part B, Red type PWS, 5.0 mg/kg group, irradiated 20 min
# [13] = Part B, Thickening type PWS, 2.5 mg/kg group, irradiated 20 min
# [14] = Part B, Thickening type PWS, 5.0 mg/kg group, irradiated 20 min
# [15] = Purple type PWS, 5.0 mg/kg, irradiation 20 min
# [16] = Purple type PWS, 5.0 mg/kg, irradiation 30 min
# [17] = Red type PWS, 5.0 mg/kg, irradiation 20 min
# [18] = Red type PWS, 5.0 mg/kg, irradiation 30 min
# [19] = Thickening type PWS, 5.0 mg/kg, irradiation 20 min
# [20] = Thickening type PWS, 5.0 mg/kg, irradiation 30 min
substance,measurement,setting,value
hematoporphyrin monomethyl ether [HMME],AUC0˜n,[1]; [2],6342 ± 2824 ng·h/mL
same,Cmax,[1]; [2],17491 ± 7045 ng/mL
same,t1/2,[1]; [2],1.26 ± 0.33 h
same,AUC0˜n,[1]; [3],17531 ± 3467 ng·h/mL
same,Cmax,[1]; [3],35724 ± 4539 ng/mL
same,t1/2,[1]; [3],1.31 ± 0.33 h
same,Excellent (cases),port wine stain lesion; [4],2
same,Excellent rate %,port wine stain lesion; [4],10.0%
same,Good (cases),port wine stain lesion; [4],9
same,Ineffective (cases),port wine stain lesion; [4],4
same,Moderate (cases),port wine stain lesion; [4],5
same,Response rate %,port wine stain lesion; [4],80.0%
same,Significant response rate %,port wine stain lesion; [4],55.0%
same,Excellent (cases),port wine stain lesion; [5],7
same,Excellent rate %,port wine stain lesion; [5],36.8%
same,Good (cases),port wine stain lesion; [5],8
same,Ineffective (cases),port wine stain lesion; [5],1
same,Moderate (cases),port wine stain lesion; [5],3
same,Response rate %,port wine stain lesion; [5],94.7%
same,Significant response rate %,port wine stain lesion; [5],78.9%
same,Excellent (cases),port wine stain lesion; [6],0
same,Good (cases),port wine stain lesion; [6],1
same,Ineffective (cases),port wine stain lesion; [6],24
same,Moderate (cases),port wine stain lesion; [6],15
same,Significant response rate %,port wine stain lesion; [6],2.5%
same,Excellent rate %,port wine stain lesion; [7],0%
same,Response rate %,port wine stain lesion; [7],40%
same,Excellent (cases),port wine stain lesion; [8],2
same,Excellent rate %,port wine stain lesion; [8],5.0%
same,Good (cases),port wine stain lesion; [8],14
same,Ineffective (cases),port wine stain lesion; [8],10
same,Moderate (cases),port wine stain lesion; [8],14
same,Response rate %,port wine stain lesion; [8],75.0%
same,Significant response rate %,port wine stain lesion; [8],40.0%
same,Excellent (cases),port wine stain lesion; [9],0
same,Excellent rate %,port wine stain lesion; [9],0.0%
same,Good (cases),port wine stain lesion; [9],0
same,Ineffective (cases),port wine stain lesion; [9],14
same,Moderate (cases),port wine stain lesion; [9],3
same,Response rate %,port wine stain lesion; [9],17.6%
same,Significant response rate %,port wine stain lesion; [9],0.0%
same,Excellent (cases),port wine stain lesion; [10],0
same,Excellent rate %,port wine stain lesion; [10],0.0%
same,Good (cases),port wine stain lesion; [10],7
same,Ineffective (cases),port wine stain lesion; [10],8
same,Moderate (cases),port wine stain lesion; [10],9
same,Response rate %,port wine stain lesion; [10],66.7%
same,Significant response rate %,port wine stain lesion; [10],29.2%
same,Excellent (cases),port wine stain lesion; [11],0
same,Excellent rate %,port wine stain lesion; [11],0.0%
same,Good (cases),port wine stain lesion; [11],1
same,Ineffective (cases),port wine stain lesion; [11],7
same,Moderate (cases),port wine stain lesion; [11],8
same,Response rate %,port wine stain lesion; [11],56.3%
same,Significant response rate %,port wine stain lesion; [11],6.3%
same,Excellent (cases),port wine stain lesion; [12],2
same,Excellent rate %,port wine stain lesion; [12],14.3%
same,Good (cases),port wine stain lesion; [12],7
same,Ineffective (cases),port wine stain lesion; [12],1
same,Moderate (cases),port wine stain lesion; [12],4
same,Response rate %,port wine stain lesion; [12],92.9%
same,Significant response rate %,port wine stain lesion; [12],64.3%
same,Excellent (cases),port wine stain lesion; [13],0
same,Excellent rate %,port wine stain lesion; [13],0/7
same,Good (cases),port wine stain lesion; [13],0
same,Ineffective (cases),port wine stain lesion; [13],3
same,Moderate (cases),port wine stain lesion; [13],4
same,Response rate %,port wine stain lesion; [13],4/7
same,Significant response rate %,port wine stain lesion; [13],0/7
same,Excellent (cases),port wine stain lesion; [14],0
same,Excellent rate %,port wine stain lesion; [14],0/2
same,Good (cases),port wine stain lesion; [14],0
same,Ineffective (cases),port wine stain lesion; [14],1
same,Moderate (cases),port wine stain lesion; [14],1
same,Response rate %,port wine stain lesion; [14],1/2
same,Significant response rate %,port wine stain lesion; [14],0/2
same,Excellent (cases),port wine stain lesion; [15],0
same,Excellent rate %,port wine stain lesion; [15],0/0
same,Good (cases),port wine stain lesion; [15],2
same,Ineffective (cases),port wine stain lesion; [15],1
same,Moderate (cases),port wine stain lesion; [15],3
same,Response rate %,port wine stain lesion; [15],5/6
same,Significant response rate %,port wine stain lesion; [15],2/6
same,Excellent (cases),port wine stain lesion; [16],1
same,Excellent rate %,port wine stain lesion; [16],1/8
same,Good (cases),port wine stain lesion; [16],5
same,Ineffective (cases),port wine stain lesion; [16],0
same,Moderate (cases),port wine stain lesion; [16],2
same,Response rate %,port wine stain lesion; [16],8/8
same,Significant response rate %,port wine stain lesion; [16],6/8
same,Excellent (cases),port wine stain lesion; [17],2
same,Excellent rate %,port wine stain lesion; [17],2/11
same,Good (cases),port wine stain lesion; [17],7
same,Ineffective (cases),port wine stain lesion; [17],0
same,Moderate (cases),port wine stain lesion; [17],2
same,Response rate %,port wine stain lesion; [17],11/11
same,Significant response rate %,port wine stain lesion; [17],9/11
same,Excellent (cases),port wine stain lesion; [18],6
same,Excellent rate %,port wine stain lesion; [18],6/10
same,Good (cases),port wine stain lesion; [18],2
same,Ineffective (cases),port wine stain lesion; [18],1
same,Moderate (cases),port wine stain lesion; [18],1
same,Response rate %,port wine stain lesion; [18],9/10
same,Significant response rate %,port wine stain lesion; [18],8/10
same,Excellent (cases),port wine stain lesion; [19],0
same,Excellent rate %,port wine stain lesion; [19],0/0
same,Good (cases),port wine stain lesion; [19],0
same,Ineffective (cases),port wine stain lesion; [19],3
same,Moderate (cases),port wine stain lesion; [19],0
same,Response rate %,port wine stain lesion; [19],0/0
same,Significant response rate %,port wine stain lesion; [19],0/0
same,Excellent (cases),port wine stain lesion; [20],0
same,Excellent rate %,port wine stain lesion; [20],0/0
same,Good (cases),port wine stain lesion; [20],1
same,Ineffective (cases),port wine stain lesion; [20],0
same,Moderate (cases),port wine stain lesion; [20],0
same,Response rate %,port wine stain lesion; [20],1/1
same,Significant response rate %,port wine stain lesion; [20],1/1
